In patent US10160755B2 (Plexxikon Inc., priority 2015, dated 2018):

Target: c-Kit (Homo sapiens, UniProt P10721)
Assay: c-Kit biochemical assay (per US 2007/0032519)
Method in brief: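 Biochemical kinase inhibition run per US 2007/0032519; values reported as binned IC50 ranges (0.0001–1 μM, 1–10 μM, 10–200 μM).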

Chain of c-Kit (P10721 26-976): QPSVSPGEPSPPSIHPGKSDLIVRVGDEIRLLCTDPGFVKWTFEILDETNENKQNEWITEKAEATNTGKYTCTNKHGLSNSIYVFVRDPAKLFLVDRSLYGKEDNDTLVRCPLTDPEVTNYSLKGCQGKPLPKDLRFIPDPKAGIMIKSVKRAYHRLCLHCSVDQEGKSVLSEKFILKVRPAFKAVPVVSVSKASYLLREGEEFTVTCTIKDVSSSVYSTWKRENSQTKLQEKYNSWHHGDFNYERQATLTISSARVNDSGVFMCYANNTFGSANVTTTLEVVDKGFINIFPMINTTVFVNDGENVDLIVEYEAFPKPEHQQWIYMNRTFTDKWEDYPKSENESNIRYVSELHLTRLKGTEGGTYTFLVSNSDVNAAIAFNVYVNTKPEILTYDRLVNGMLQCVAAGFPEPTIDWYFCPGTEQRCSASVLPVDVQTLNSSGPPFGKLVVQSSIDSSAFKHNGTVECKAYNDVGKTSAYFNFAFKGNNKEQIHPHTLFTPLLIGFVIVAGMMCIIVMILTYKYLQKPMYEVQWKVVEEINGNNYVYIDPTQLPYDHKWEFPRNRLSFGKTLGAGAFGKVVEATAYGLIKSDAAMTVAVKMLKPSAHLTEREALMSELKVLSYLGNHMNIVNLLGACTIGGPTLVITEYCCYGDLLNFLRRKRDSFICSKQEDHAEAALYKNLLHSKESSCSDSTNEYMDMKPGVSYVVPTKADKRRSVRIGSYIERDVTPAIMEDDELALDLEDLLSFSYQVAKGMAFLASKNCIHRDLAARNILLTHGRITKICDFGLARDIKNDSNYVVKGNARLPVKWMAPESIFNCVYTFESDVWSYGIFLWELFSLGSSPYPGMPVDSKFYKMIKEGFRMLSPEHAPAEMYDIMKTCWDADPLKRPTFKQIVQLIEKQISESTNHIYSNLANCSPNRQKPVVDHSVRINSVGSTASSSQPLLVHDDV

SMILES	IC50 [µM]
CC(C)(O)c1ncc(-c2cnc3[nH]cc(-c4ccc5ncn(C(C)(C)C)c5c4)c3n2)cn1 [P-380, 2-[5-[7-(3-tert-butylbenzimidazol-5-yl)-5H-pyrrolo[2,3-b]pyrazin-2-yl]pyrimidin-2-yl]propan-2-ol]	1 to 10
COc1cnc2[nH]cc(-c3ccc4ncn(C(C)(C)C)c4c3)c2c1 [P-074, 1-tert-butyl-6-(5-methoxy-1H-pyrrolo[2,3-b]pyridin-3-yl)benzimidazole]	1 to 10
COc1ncc(-c2cnc3[nH]cc(-c4ccc5ncn(C(C)(C)C)c5c4)c3n2)cc1C#N [P-405, 5-[7-(3-tert-butylbenzimidazol-5-yl)-5H-pyrrolo[2,3-b]pyrazin-2-yl]-2-methoxy-pyridine-3-carbonitrile]	10 to 200
CC(C)(C)n1cnc2ccc(-c3c[nH]c4ncc(-c5cnc(F)c(F)c5)nc34)cc21 [P-390, 7-(3-tert-butylbenzimidazol-5-yl)-2-(5,6-difluoro-3-pyridyl)-5H-pyrrolo[2,3-b]pyrazine]	10 to 200
COc1cnc2[nH]cc(-c3ccc4ncn(-c5ccccc5)c4c3)c2c1 [P-068, 5-methoxy-3-(3-phenylbenzimidazol-5-yl)-1H-pyrrolo[2,3-b]pyridine]	10 to 200
CC(C)(C)n1cnc2ccc(-c3c[nH]c4ncc(-c5cnc(C#N)nc5)nc34)cc21 [P-352, 5-[7-(3-tert-butylbenzimidazol-5-yl)-5H-pyrrolo[2,3-b]pyrazin-2-yl]pyrimidine-2-carbonitrile]	10 to 200
CC(C)(C)n1cnc2ccc(-c3c[nH]c4ncc(-c5cnc(O)nc5)nc34)cc21 [P-363, 5-[7-(3-tert-butylbenzimidazol-5-yl)-5H-pyrrolo[2,3-b]pyrazin-2-yl]pyrimidin-2-ol]	1 to 10
Cc1ccc(-c2cnc3[nH]cc(-c4ccc5ncn(C(C)(C)C)c5c4)c3n2)cn1 [P-388, 7-(3-tert-butylbenzimidazol-5-yl)-2-(6-methyl-3-pyridyl)-5H-pyrrolo[2,3-b]pyrazine]	0.0001 to 1
CC(C)(C)n1cnc2ccc(-c3c[nH]c4ncc(-c5ccnc(C#N)c5)nc34)cc21 [P-301, 4-[7-(3-tert-butylbenzimidazol-5-yl)-5H-pyrrolo[2,3-b]pyrazin-2-yl]pyridine-2-carbonitrile]	10 to 200
COc1cnc2[nH]cc(-c3ccc4ncn(C5CCC5)c4c3)c2c1 [P-061, 1-cyclobutyl-6-(5-methoxy-1H-pyrrolo[2,3-b]pyridin-3-yl)benzimidazole]	1 to 10
